In patent publication US20230002334A1, “TRPM8 MODULATORS” (Givaudan SA, priority 2019, published 2023):

Target: T1, hTRPM8 (Homo sapiens, UniProt Q7Z2W7)
T1 construct: expressed in transfected cells
Assay: Assay on TRPM8 modulators: calcium imaging (Fluo-4, Flexstation) in HEK293 cell line stably expressing hTRPM8
Format: cell-based
Conditions: HEK293 cells stably expressing hTRPM8, calcium influx, sigmoidal dose-response fit; read-out: EC50
Protocol: A HEK293 cell line stably expressing hTRPM8 was generated according to Klein et al., (Chem. Senses 36: 649-658, 2011) and receptor activation was monitored by calcium imaging in a Flexstation. For Ca-imaging assays of TRPM8 channel activation, cells were seeded on day 0 at a density of 12000 cells per well in Dulbecco's modified Eagle medium (DMEM) containing 9% foetal bovine serum in black, clear bottom 96-well plates that had been coated with 0.001% polyethyleneimine (molecular weight=60 000, Acros Organics). On day 2, agonists were evaluated via calcium imaging using Fluo-4. Briefly, growth medium was discarded, and the cells were incubated in the dark for 1 h at 37° C. in 50 μL loading buffer consisting of 2.7 μM Fluo-4 AM (Invitrogen) and […] probenecid (Sigma-Aldrich) in DMEM (without serum). After incubation, the plates were washed five times with 100 μL of assay buffer (in mM: 130 NaCl, 5 KCl, 10 HEPES, 2 CaCl2, and 10 glucose, pH7.4.) and further incubated in the dark at room temperature for 30 min. The cells were then washed five times with 100 μL assay buffer and then calcium influx to serial dilutions of inventive compounds were measured in a Flexstation 3 (Molecular Devices). Receptor activation was initiated following addition of 20 μl of a 10-fold concentrated ligand stock solution, which is also prepared in assay buffer. Fluorescence was continuously monitored for 15 seconds prior to ligand addition and for 105 seconds after ligand addition, for a total of 120 seconds. Maximal receptor activation in relation to solvent control and relative to 31.6 μM menthol is determined. Data from serial dilutions were processed with a KNIME workflow to fit a sigmoidal dose-response curve and to extrapolate EC50 values.

T1 sequence (Q7Z2W7 whole entry): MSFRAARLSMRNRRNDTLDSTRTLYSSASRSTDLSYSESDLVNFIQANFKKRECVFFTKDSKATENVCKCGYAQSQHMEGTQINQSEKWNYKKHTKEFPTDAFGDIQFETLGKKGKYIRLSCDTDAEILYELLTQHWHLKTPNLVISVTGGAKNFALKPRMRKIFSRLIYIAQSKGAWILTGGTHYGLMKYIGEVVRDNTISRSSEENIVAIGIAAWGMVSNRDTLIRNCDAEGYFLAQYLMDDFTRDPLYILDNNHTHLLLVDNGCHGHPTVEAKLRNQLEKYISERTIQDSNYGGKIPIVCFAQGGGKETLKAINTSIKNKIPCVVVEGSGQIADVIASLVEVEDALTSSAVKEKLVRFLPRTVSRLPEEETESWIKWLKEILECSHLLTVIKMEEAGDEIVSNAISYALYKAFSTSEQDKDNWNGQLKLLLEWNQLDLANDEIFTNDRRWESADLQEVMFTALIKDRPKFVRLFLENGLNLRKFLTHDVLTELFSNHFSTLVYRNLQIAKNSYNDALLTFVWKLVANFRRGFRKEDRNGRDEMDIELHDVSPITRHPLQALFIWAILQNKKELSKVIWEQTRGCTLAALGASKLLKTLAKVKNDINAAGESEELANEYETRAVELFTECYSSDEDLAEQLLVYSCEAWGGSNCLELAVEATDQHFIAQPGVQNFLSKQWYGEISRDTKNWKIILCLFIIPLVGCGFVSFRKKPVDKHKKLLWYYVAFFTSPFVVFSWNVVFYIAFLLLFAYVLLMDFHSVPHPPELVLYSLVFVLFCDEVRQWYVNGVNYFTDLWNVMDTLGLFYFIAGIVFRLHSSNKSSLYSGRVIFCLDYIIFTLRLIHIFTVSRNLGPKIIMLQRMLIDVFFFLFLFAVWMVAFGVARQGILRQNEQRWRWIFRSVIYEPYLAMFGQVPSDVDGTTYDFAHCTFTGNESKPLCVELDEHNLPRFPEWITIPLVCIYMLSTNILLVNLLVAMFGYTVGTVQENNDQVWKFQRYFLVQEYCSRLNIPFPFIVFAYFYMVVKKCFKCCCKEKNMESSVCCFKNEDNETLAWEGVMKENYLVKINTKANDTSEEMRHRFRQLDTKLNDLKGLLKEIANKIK

Compound	EC50 [nM]
Cc1c(Cl)cccc1[C@]1(C)C[C@@H](C)[C@@H]2[C@@H](C1)C(C)(C)ON2C (racemic) [Compound 34, rac-(3aR,5R,7R,7aR)-5-(3-chloro-2-methylphenyl)-1,3,3,5,7-pentamethyloctahydrobenzo[c]isoxazole]	300 to 1000
Cc1ccc(F)cc1[C@@]1(C)C[C@@H]2[C@@H]([C@@H](C)C1)N(C)OC2(C)C (racemic) [Compound 107, rac-(3aR,5R,7S,7aR)-5-(5-fluoro-2-methylphenyl)-1,3,3,5,7-pentamethyloctahydrobenzo[c]isoxazole]	< 50
CCCC[C@@H]1CC[C@@H]2[C@@H](C1)C(C)(C)ON2CC (racemic) [Compound 28, rac-(3aR,5R,7aR)-5-butyl-1-ethyl-3,3-dimethyloctahydrobenzo[c]isoxazole]	300 to 1000
CC(C)CCC1CC(C)C2C(C1)C(C)(C)OC(=O)N2C (stereo not drawn) [Compound 21, 6-isopentyl-1,4,4,8-tetramethyloctahydro-2H-benzo[d][1,3]oxazin-2-one]	1000 to 35000
CCN1OC(C)(C)[C@@H]2C[C@](C)(c3ccccc3)C[C@H](C)[C@H]21 (racemic) [Compound 55, rac-(3aR,5R,7S,7aR)-1-ethyl-3,3,5,7-tetramethyl-5-phenyloctahydrobenzo[c]isoxazole]	50 to 300
CC1CC(C)[C@@H]2[C@@H](C1C)C(C)(C)ON2C (mixture of isomers) [Compound 114, rac-(3aR,7aR)-1,3,3,4,5,7-hexamethyloctahydrobenzo[c]isoxazole]	1000 to 35000
CCC1(C)CC(C)C2C(C1)C(C)(C)ON2C (stereo not drawn) [Compound 20, 5-ethyl-1,3,3,5,7-pentamethyloctahydrobenzo[c]isoxazole]	1000 to 35000
C[C@H]1C[C@@](C)(c2cc(Cl)cc(C#N)c2)C[C@@H]2[C@@H]1N(C)OC2(C)C (racemic) [Compound 129, rac-3-chloro-5-((3aR,5R,7S,7aR)-1,3,3,5,7-pentamethyloctahydrobenzo[c]isoxazol-5-yl)benzonitrile]	< 50
Cc1cc(C)cc([C@@]2(C)C[C@@H]3[C@@H]([C@@H](C)C2)N(C)OC3(C)C)c1 (racemic) [Compound 87, rac-(3aR,5R,7S,7aR)-5-(3,5-dimethylphenyl)-1,3,3,5,7-pentamethyloctahydrobenzo[c]isoxazole]	300 to 1000
Cc1cccc(C)c1[C@@]1(C)C[C@@H]2[C@@H]([C@@H](C)C1)N(C)OC2(C)C (racemic) [Compound 76, rac-(3aR,5R,7S,7aR)-5-(2,6-dimethylphenyl)-1,3,3,5,7-pentamethyloctahydrobenzo[c]isoxazole]	300 to 1000
C[C@H]1C[C@@H](c2ccc(C(C)(C)C)cc2)C[C@@H]2[C@@H]1N(C)OC2(C)C (racemic) [Compound 96, rac-(3aR,5R,7S,7aR)-5-(4-(tert-butyl)phenyl)-1,3,3,7-tetramethyloctahydrobenzo[c]isoxazole]	1000 to 35000
CC(C)N1OC(C)(C)[C@@H]2C[C@](C)(c3cccc(C#N)c3)C[C@H](C)[C@H]21 (racemic) [Compound 127, rac-3-((3aR,5R,7S,7aR)-1-isopropyl-3,3,5,7-tetramethyloctahydrobenzo[c]isoxazol-5-yl)benzonitrile]	< 50
Cc1ccc(Cl)cc1[C@H]1C[C@@H]2[C@@H]([C@@H](C)C1)N(C(C)C)OC2(C)C (racemic) [Compound 106, rac-(3aR,5R,7S,7aR)-5-(5-chloro-2-methylphenyl)-1-isopropyl-3,3,7-trimethyloctahydrobenzo[c]isoxazole]	300 to 1000
Cc1ccccc1[C@H]1C[C@@H]2[C@@H]([C@@H](C)C1)N(C)OC2(C)C (racemic) [Compound 51, rac-(3aR,5R,7S,7aR)-1,3,3,7-tetramethyl-5-(o-tolyl)octahydrobenzo[c]isoxazole]	300 to 1000
COc1cccc([C@@]2(C)C[C@@H]3[C@@H]([C@@H](C)C2)N(C(C)C)OC3(C)C)n1 (racemic) [Compound 68, rac-(3aR,5R,7S,7aR)-1-isopropyl-5-(6-methoxypyridin-2-yl)-3,3,5,7-tetramethyloctahydrobenzo[c]isoxazole]	300 to 1000
CC(C)N1OC(C)(C)[C@@H]2C[C@](C)(c3ccccc3)C[C@H](C)[C@H]21 (racemic) [Compound 60, rac-(3aR,5R,7S,7aR)-1-isopropyl-3,3,5,7-tetramethyl-5-phenyloctahydrobenzo[c]isoxazole]	50 to 300
COc1ccccc1[C@@]1(C)C[C@@H]2[C@@H]([C@@H](C)C1)N(C(C)C)OC2(C)C (racemic) [Compound 65, rac-(3aR,5R,7S,7aR)-1-isopropyl-5-(2-methoxyphenyl)-3,3,5,7-tetramethyloctahydrobenzo[c]isoxazole]	50 to 300

Compound	EC50 [nM]
CCN1OC(C)(C)[C@@H]2C[C@](C)(CC=C(C)C)C[C@H](C)[C@H]21 (racemic) [Compound 53, rac-(3aR,5R,7S,7aR)-1-ethyl-3,3,5,7-tetramethyl-5-(3-methylbut-2-en-1-yl)octahydrobenzo[c]isoxazole]	50 to 300
Cc1c(Cl)cccc1[C@@]1(C)C[C@@H]2[C@@H]([C@@H](C)C1)N(C)OC2(C)C (racemic) [Compound 89, rac-(3aR,5R,7S,7aR)-5-(3-chloro-2-methylphenyl)-1,3,3,5,7-pentamethyloctahydrobenzo[c]isoxazole]	50 to 300
CC1CC(C)[C@H]2[C@@H](C1C)C(C)(C)ON2C (mixture of isomers) [Compound 117, rac-(3aR,7aS)-1,3,3,4,5,7-hexamethyloctahydrobenzo[c]isoxazole]	1000 to 35000
Cc1ccc([C@@]2(C)C[C@@H]3[C@@H]([C@@H](C)C2)N(C)OC3(C)C)c(C)c1 (racemic) [Compound 71, rac-(3aR,5R,7S,7aR)-5-(2,4-dimethylphenyl)-1,3,3,5,7-pentamethyloctahydrobenzo[c]isoxazole]	50 to 300
Cc1ccc(C#N)c([C@@]2(C)C[C@@H]3[C@@H]([C@@H](C)C2)N(C)OC3(C)C)c1 (racemic) [Compound 134, rac-4-methyl-2-((3aR,5R,7S,7aR)-1,3,3,5,7-pentamethyloctahydrobenzo[c]isoxazol-5-yl)benzonitrile]	50 to 300
CCC[C@@H]1CC[C@@H]2[C@@H](C1)C(C)(C)ON2C (racemic) [Compound 24, rac-(3aR,5R,7aR)-1,3,3-trimethyl-5-propyloctahydrobenzo[c]isoxazole]	300 to 1000
COc1cccc([C@@]2(C)C[C@@H]3[C@@H]([C@@H](C)C2)N(C)OC3(C)C)c1 (racemic) [Compound 94, rac-(3aR,5R,7S,7aR)-5-(3-methoxyphenyl)-1,3,3,5,7-pentamethyloctahydrobenzo[c]isoxazole]	50 to 300
COc1cccc(C2(C)CC(C)C3C(C2)C(C)(C)ON3C)n1 (stereo not drawn) [Compound 18, 5-(6-methoxypyridin-2-yl)-1,3,3,5,7-pentamethyloctahydrobenzo[c]isoxazole]	300 to 1000
C[C@@H]1C[C@@](C)(c2ccc(Cl)c(C#N)c2)C[C@H]2[C@H]1N(C)OC2(C)C (racemic) [Compound 122, rac-2-chloro-5-((3aS,5R,7R,7aS)-1,3,3,5,7-pentamethyloctahydrobenzo[c]isoxazol-5-yl)benzonitrile]	1000 to 35000
CCC1CC(CC)[C@@H]2[C@@H](C1)C(C)(C)ON2CC (mixture of isomers) [Compound 116, rac-(3aR,7aR)-1,5,7-triethyl-3,3-dimethyloctahydrobenzo[c]isoxazole]	1000 to 35000
COc1ccc([C@@]2(C)C[C@@H]3[C@@H]([C@@H](C)C2)N(C)OC3(C)C)cc1 (racemic) [Compound 104, rac-(3aR,5R,7S,7aR)-5-(4-methoxyphenyl)-1,3,3,5,7-pentamethyloctahydrobenzo[c]isoxazole]	300 to 1000
CCc1ccccc1[C@H]1C[C@@H]2[C@@H]([C@@H](C)C1)N(C)OC2(C)C (racemic) [Compound 79, rac-(3aR,5R,7S,7aR)-5-(2-ethylphenyl)-1,3,3,7-tetramethyloctahydrobenzo[c]isoxazole]	1000 to 35000
Cc1c(Cl)cccc1[C@H]1C[C@@H]2[C@@H]([C@@H](C)C1)N(C(C)C)OC2(C)C (racemic) [Compound 90, rac-(3aR,5R,7S,7aR)-5-(3-chloro-2-methylphenyl)-1-isopropyl-3,3,7-trimethyloctahydrobenzo[c]isoxazole]	50 to 300
CCC[C@@H]1CC[C@@H]2[C@@H](C1)C(C)(C)ON2CC (racemic) [Compound 25, rac-(3aR,5R,7aR)-1-ethyl-3,3-dimethyl-5-propyloctahydrobenzo[c]isoxazole]	300 to 1000
C[C@H]1C[C@@](C)(c2ccc(Cl)c(C#N)c2)C[C@@H]2[C@@H]1N(C)OC2(C)C (racemic) [Compound 121, rac-2-chloro-5-((3aR,5R,7S,7aR)-1,3,3,5,7-pentamethyloctahydrobenzo[c]isoxazol-5-yl)benzonitrile]	< 50
Cc1ccc(C)c([C@H]2C[C@@H]3[C@@H]([C@@H](C)C2)N(C)OC3(C)C)c1 (racemic) [Compound 75, rac-(3aR,5R,7S,7aR)-5-(2,5-dimethylphenyl)-1,3,3,7-tetramethyloctahydrobenzo[c]isoxazole]	300 to 1000
